Laboratory results reported in US20080096894A1, “Anti-Bacterial Compounds” (ASTON UNIVERSITY, priority 2005, published 2008).
Converted amounts (≈) assume the structure as drawn. Read-outs that look alike come from different tables or passages of the source.

How the values were obtained:
Assay in all cases: MIC, agar dilution, multipoint inoculator
MRSA = type: cell-based, methicillin-resistant Staphylococcus aureus; settings: for MIC: upper value of MIC reading
Procedure, shortened: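 Agar dilution MIC on Mueller Hinton agar, multipoint inoculator delivering 10^4 colony forming units per spot. MRSA values are ranges across ten clinical MRSA strains; S. aureus NCTC 6571 as reference strain.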

E. cloacae = type: cell-based, Enterobacter cloacae; settings: E. cloacae NCTC 11582, upper value of MIC reading
Procedure: (§1) This activity was measured using a multipoint inoculator method as follows. The MIC for each compound was measured using an agar dilution method (Onda, H., et al., Int. J. Antimicrob. Agents. 18, 263 (2001)) (Mueller Hinton agar) by means of a multipoint inoculator delivering 10^4 colony forming units per spot.

K. pneumoniae = type: cell-based, Klebsiella pneumoniae; settings: K. pneumoniae 327, upper value of MIC reading
Procedure: as §1

S. maltophilia = type: cell-based; settings: S. maltophilia NCTC 10257, upper value of MIC reading
Procedure, shortened: (§2)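 Read-out is the MIC by agar dilution. Plates contain Mueller Hinton agar; bacteria are applied via multipoint inoculator, 10^4 CFU per spot.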

E. faecalis = type: cell-based; settings: upper value of MIC reading
Procedure, shortened: as §2

B. bronchiseptica = type: cell-based; settings: B. bronchiseptica NCTC 8344, upper value of MIC reading
Procedure, shortened: as §2

S. haemolyticus = type: cell-based; settings: S. haemolyticus Isolate 1, upper value of MIC reading
Procedure, shortened: as §2

S. aboni = type: cell-based; settings: S. aboni NCTC 6017; upper value of MIC reading
Procedure, shortened: as §2

S. aureus = type: cell-based, Staphylococcus aureus; settings: upper value of MIC reading
Procedure, shortened: as §2

S. epidemisis = type: cell-based, Staphylococcus epidermidis; settings: upper value of MIC reading
Procedure, shortened: as §2

P. auriginosa = type: cell-based, Pseudomonas aeruginosa; settings: P. auriginosa NCTC 6749, upper value of MIC reading
Procedure: as §1

E. faecium = type: cell-based, Enterococcus faecium; settings: Enterococcus faecium, upper value of MIC reading, read-out: MIC
Procedure, shortened: as §2

E. coli = type: cell-based, Escherichia coli; settings: Escherichia coli, 18 h, upper value of MIC reading
Procedure: as §1

S. marcesens = type: cell-based, Serratia marcescens; settings: Serratia marcescens, 18 h; S. marcesens 4444; upper value of MIC reading; read-out: MIC
Procedure: as §1

NC(=NN=Cc1c(O)ccc2ccccc12)c1cccnc1 [Compound 3PYdb]
MIC (MRSA; MRSA Isolate 1, in µg/mL): 256
MIC (MRSA; MRSA Isolate 2, in µg/mL): 256
MIC (MRSA; MRSA Isolate 3, in µg/mL): 256
MIC (MRSA; MRSA Isolate 4, in µg/mL): 256
MIC (MRSA; MRSA Isolate 5, in µg/mL): 256
MIC (MRSA; MRSA Isolate 6, in µg/mL): 256
MIC (MRSA; MRSA Isolate 7, in µg/mL): 256
MIC (MRSA; MRSA Isolate 8, in µg/mL): 256
MIC (MRSA; MRSA Isolate 9, in µg/mL): 256
MIC (MRSA; MRSA Isolate 10, in µg/mL): 256
MRSA MIC range (MRSA; panel of ten MRSA strains (clinical isolates)): 128 to 256 µg/mL
MIC (E. cloacae): 256 µg/mL (≈ 882 µM)
MIC (K. pneumoniae): 256 µg/mL (≈ 882 µM)
MIC (S. maltophilia): 266 µg/mL (≈ 916 µM)
MIC (E. faecalis; E. faecalis Isolate 2): 256 µg/mL (≈ 882 µM)
MIC (E. faecalis; E. faecalis Isolate 5): 256 µg/mL (≈ 882 µM)
MIC (B. bronchiseptica): 256 µg/mL (≈ 882 µM)
MIC (S. haemolyticus): 256 µg/mL (≈ 882 µM)
MIC (S. aboni): 32 µg/mL (≈ 110 µM)
MIC (S. aureus; S. aureus Cowan 1): 256 µg/mL (≈ 882 µM)
MIC (S. aureus; S. aureus NCTC 6571): 256 µg/mL (≈ 882 µM)
MIC (S. aureus; S. aureus NCTC 10788): 256 µg/mL (≈ 882 µM)
MIC (S. epidemisis; S. epidemisis Isolate 1): 256 µg/mL (≈ 882 µM)
MIC (S. epidemisis; S. epidemisis NCTC 11047): 256 µg/mL (≈ 882 µM)
MIC (P. auriginosa): 256 µg/mL (≈ 882 µM)

CC1(C)S[C@@H]2[C@H](NC(=O)[C@H](N)c3ccccc3)C(=O)N2[C@H]1C(=O)O [Amp., Ampicillin, reference compound]
MIC (E. faecium; 18 h, E. faecium ACTCC 10541): 2 µg/mL (≈ 5.72 µM)
MIC (E. faecium; NCTC7171, 18 h, E. faecium NCTC 7171): 1 µg/mL (≈ 2.86 µM)
MIC (MRSA; Staphylococcus aureus, 18 h, MRSA Isolate 1, read-out: MIC): 0.12 µg/mL (≈ 0.343 µM)
MIC (MRSA; Staphylococcus aureus, 18 h, MRSA Isolate 2, read-out: MIC): 8 µg/mL (≈ 22.9 µM)
MIC (MRSA; Staphylococcus aureus, 18 h, MRSA Isolate 3, read-out: MIC): 8 µg/mL (≈ 22.9 µM)
MIC (MRSA; Staphylococcus aureus, 18 h, MRSA Isolate 4, read-out: MIC): 8 µg/mL (≈ 22.9 µM)
MIC (MRSA; Staphylococcus aureus, 18 h, MRSA Isolate 5, read-out: MIC): 8 µg/mL (≈ 22.9 µM)
MIC (MRSA; Staphylococcus aureus, 18 h, MRSA Isolate 6, read-out: MIC): 8 µg/mL (≈ 22.9 µM)
MIC (MRSA; Staphylococcus aureus, 18 h, MRSA Isolate 7, read-out: MIC): 8 µg/mL (≈ 22.9 µM)
MIC (MRSA; Staphylococcus aureus, 18 h, MRSA Isolate 8, read-out: MIC): 8 µg/mL (≈ 22.9 µM)
MIC (MRSA; Staphylococcus aureus, 18 h, MRSA Isolate 9, read-out: MIC): 8 µg/mL (≈ 22.9 µM)
MIC (MRSA; Staphylococcus aureus, 18 h, MRSA Isolate 10, read-out: MIC): 8 µg/mL (≈ 22.9 µM)
MIC (E. cloacae; Enterobacter cloacae, NCTC11582, 18 h, read-out: MIC): 16 µg/mL (≈ 45.8 µM)
MIC (E. coli; E. coli W3110R+): > 16 µg/mL
MIC (E. coli; E. coli W3110R−): 1 µg/mL (≈ 2.86 µM)
MIC (K. pneumoniae; Klebsiella pneumoniae, 18 h, read-out: MIC): > 16 µg/mL
MIC (S. maltophilia; Stenotrophomonas maltophilia, NCTC10257, 18 h, read-out: MIC): 16 µg/mL (≈ 45.8 µM)
MIC (E. faecalis; Enterococcus faecalis, 18 h, E. faecalis EBH1, read-out: MIC): 0.05 µg/mL (≈ 0.143 µM)
MIC (E. faecalis; Enterococcus faecalis, 18 h, E. faecalis Isolate 1, read-out: MIC): 0.05 µg/mL (≈ 0.143 µM)
MIC (E. faecalis; Enterococcus faecalis, 18 h, E. faecalis Isolate 2, read-out: MIC): 0.05 µg/mL (≈ 0.143 µM)
MIC (E. faecalis; Enterococcus faecalis, 18 h, E. faecalis Isolate 3, read-out: MIC): 0.05 µg/mL (≈ 0.143 µM)
MIC (E. faecalis; Enterococcus faecalis, 18 h, E. faecalis Isolate 4, read-out: MIC): 2 µg/mL (≈ 5.72 µM)
MIC (E. faecalis; Enterococcus faecalis, 18 h, E. faecalis Isolate 5, read-out: MIC): 2 µg/mL (≈ 5.72 µM)
MIC (E. faecalis; Enterococcus faecalis, NCTC5957, 18 h, E. faecalis NCTC 5957, read-out: MIC): 2 µg/mL (≈ 5.72 µM)
MIC (B. bronchiseptica; Bordetella bronchiseptica, NCTC8344, 18 h, read-out: MIC): 1 µg/mL (≈ 2.86 µM)
MIC (S. haemolyticus; Staphylococcus haemolyticus, 18 h, read-out: MIC): 1 µg/mL (≈ 2.86 µM)
MIC (S. aboni): 0.05 µg/mL (≈ 0.143 µM)
MIC (S. aureus; Staphylococcus aureus, 18 h, S. aureus Cowan 1, read-out: MIC): 0.05 µg/mL (≈ 0.143 µM)
MIC (S. aureus; Staphylococcus aureus, NCTC6571, 18 h, S. aureus NCTC 6571, read-out: MIC): 0.05 µg/mL (≈ 0.143 µM)
MIC (S. aureus; Staphylococcus aureus, NCTC10788, 18 h, S. aureus NCTC 10788, read-out: MIC): 0.05 µg/mL (≈ 0.143 µM)
MIC (S. marcesens): 8 µg/mL (≈ 22.9 µM)
MIC (S. epidemisis; Staphylococcus epidermidis, 18 h, S. epidemisis Isolate 1, read-out: MIC): 8 µg/mL (≈ 22.9 µM)
MIC (S. epidemisis; Staphylococcus epidermidis, NCTC11047, 18 h, S. epidemisis NCTC 11047, read-out: MIC): 4 µg/mL (≈ 11.4 µM)
MIC (P. auriginosa; Pseudomonas aeruginosa, NCTC6749, 18 h, read-out: MIC): 16 µg/mL (≈ 45.8 µM)
